The text below walks through data of PubChem BioAssay AID248 (DTP/NCI, 2004).

This test concerns L1210 leukemia ip in BDF1 mice, survival T/C. In words: NCI In Vivo Anticancer Drug Screen. Data for tumor model L1210 Leukemia (intraperitoneal) in B6D2F1 (BDF1) mice. Conditions: endpoint: mean survival time, higher = longer survival. The method, boiled down: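 Survival endpoint. Drug-treated group vs vehicle group, expressed as T divided by C. Tumor passaged by transplantation.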

Where [1] appears, read: dose: 75.0 mg/kg/injection, schedule: Q01DX001 (ip), vehicle: saline.
The mark [2] stands for this setting: dose: 150.0 mg/kg/injection, schedule: Q01DX001 (ip), vehicle: saline.
The mark [3] stands for this setting: dose: 100.0 mg/kg/injection, schedule: Q01DX001 (ip), vehicle: saline.
Where [4] appears, read: dose: 200.0 mg/kg/injection, schedule: Q01DX001 (ip), vehicle: saline.
Setting [5] is: dose: 400.0 mg/kg/injection, schedule: Q01DX001 (ip), vehicle: saline.
Setting [6] is: dose: 100.0 mg/kg/injection, schedule: Q01DX009 (ip), vehicle: saline with Tween-80.
The mark [7] stands for this setting: dose: 200.0 mg/kg/injection, schedule: Q01DX009 (ip), vehicle: saline with Tween-80.
[8] abbreviates: dose: 100.0 mg/kg/injection, schedule: Q01DX009 (ip), vehicle: saline.
The mark [9] stands for this setting: dose: 100.0 mg/kg/injection, schedule: Q04DX003 (ip), vehicle: saline.
Setting [10] is: dose: 200.0 mg/kg/injection, schedule: Q04DX003 (ip), vehicle: saline.
Where [11] appears, read: dose: 50.0 mg/kg/injection, schedule: Q01DX009 (ip), vehicle: Klucel (hydroxypropylcellulose) (HPC).
The mark [12] stands for this setting: dose: 200.0 mg/kg/injection, schedule: Q01DX009 (ip), vehicle: saline.
Setting [13] is: dose: 400.0 mg/kg/injection, schedule: Q01DX009 (ip), vehicle: saline.
The mark [14] stands for this setting: dose: 100.0 mg/kg/injection, schedule: Q04DX003 (ip), vehicle: saline with Tween-80.

Several values for one entry are separate records, joined by “and”; a condition that tells them apart may be missing. Equal entries are not always repeated. Toxic doses and inconclusive results are not listed.

As for `CCOC(=O)c1ccc[n+](Cc2ccccc2)c1`, the T/C reads like this: under setting [1], 101 % of control; under setting [2], 106 % of control; (dose: 300.0 mg/kg/injection, schedule: Q01DX001 (ip), vehicle: saline) 98 % of control.
As to `C(=N\N1CCN(/N=C/c2ccc3ccccc3n2)CC1)/c1ccc2ccccc2n1`, the T/C was 89 % of control (dose: 100.0 mg/kg/injection, schedule: Q01DX001 (ip), vehicle: carboxymethylcellulose (CMC)); 86 % of control (dose: 200.0 mg/kg/injection, schedule: Q01DX001 (ip), vehicle: carboxymethylcellulose (CMC)); 94 % of control (dose: 400.0 mg/kg/injection, schedule: Q01DX001 (ip), vehicle: carboxymethylcellulose (CMC)).
For `Cc1[nH]ccc2cc3nc4ccccc4c3cc12`, the T/C by setting is: (dose: 50.0 mg/kg/injection, schedule: Q01DX001 (ip), vehicle: saline) 103 % of control; under setting [3], 104 % of control; under setting [4], 102 % of control; under setting [5], 103 % of control.
Regarding `CCCNC(=O)Oc1ccc(C(=O)OCC)cc1`, the T/C under setting [6] is 93 % of control; the T/C under setting [7] is 98 % of control; the T/C (dose: 400.0 mg/kg/injection, schedule: Q01DX009 (ip), vehicle: saline with Tween-80) was 94 % of control.
As to `COc1cc2cc3cc4cc(OC)c(OC)cc4c(C)[n+]3cc2cc1OC` (tested in a mixture with another compound), the T/C is 106 % of control (dose: 2.5 mg/kg/injection, schedule: Q01DX009 (ip), vehicle: saline); 108 % of control and 118 % of control (dose: 5.0 mg/kg/injection, schedule: Q01DX009 (ip), vehicle: saline); 108 % of control (dose: 10.0 mg/kg/injection, schedule: Q01DX009 (ip), vehicle: saline); 104 % of control (dose: 20.0 mg/kg/injection, schedule: Q01DX009 (ip), vehicle: saline); 110 % of control and 111 % of control (dose: 40.0 mg/kg/injection, schedule: Q01DX009 (ip), vehicle: saline); 92 % of control (dose: 80.0 mg/kg/injection, schedule: Q01DX009 (ip), vehicle: saline).
`CCCCCCCC[As](=O)(O)O`: the T/C was 104 % of control (dose: 1.5 mg/kg/injection, schedule: Q01DX001 (ip), vehicle: carboxymethylcellulose (CMC)); 98 % of control (dose: 3.0 mg/kg/injection, schedule: Q01DX001 (ip), vehicle: carboxymethylcellulose (CMC)); 102 % of control (dose: 6.0 mg/kg/injection, schedule: Q01DX001 (ip), vehicle: carboxymethylcellulose (CMC)).
On to `Cn1c(=O)c2c(nc(OCCC3CCCCC3)n2C)n(C)c1=O`, for which the T/C is, setting by setting: (dose: 50.0 mg/kg/injection, schedule: Q01DX001 (ip), vehicle: other) 90 % of control; (dose: 100.0 mg/kg/injection, schedule: Q01DX001 (ip), vehicle: other) 95 % of control; (dose: 200.0 mg/kg/injection, schedule: Q01DX001 (ip), vehicle: other) 90 % of control; (dose: 400.0 mg/kg/injection, schedule: Q01DX001 (ip), vehicle: other) 93 % of control.
`CC/C(=C(\CC)c1ccc(OCCOS(=O)(=O)c2ccc(C)cc2)cc1)c1ccc(OCCOS(=O)(=O)c2ccc(C)cc2)cc1`: the T/C is 101 % of control (dose: 6.25 mg/kg/injection, schedule: Q04DX002 (ip), vehicle: saline); 105 % of control (dose: 12.5 mg/kg/injection, schedule: Q04DX002 (ip), vehicle: saline); 97 % of control (dose: 25.0 mg/kg/injection, schedule: Q04DX002 (ip), vehicle: saline).
`COc1cc2cnccc2cc1OCc1ccccc1`: the T/C by setting is: (dose: 25.0 mg/kg/injection, schedule: Q01DX009 (ip), vehicle: water) 96 % of control; (dose: 50.0 mg/kg/injection, schedule: Q01DX009 (ip), vehicle: water) 97 % of control; (dose: 100.0 mg/kg/injection, schedule: Q01DX009 (ip), vehicle: water) 100 % of control.
In the case of `O=C1CN(CCN2CC(=O)N(c3ccccc3)C2=S)C(=S)N1Cc1ccccc1`, the T/C (dose: 50.0 mg/kg/injection, schedule: Q01DX009 (ip), vehicle: saline with Tween-80) is 96 % of control; the T/C under setting [6] was 90 % of control; the T/C under setting [7] is 94 % of control.
As to `O=S(=O)(CC12CC1(O)C1CCC2C1)c1ccccc1` (stereo not drawn), the T/C (dose: 25.0 mg/kg/injection, schedule: Q01DX009 (ip), vehicle: saline) was 104 % of control; the T/C (dose: 50.0 mg/kg/injection, schedule: Q01DX009 (ip), vehicle: saline) was 104 % of control; the T/C under setting [3] is 108 % of control; the T/C under setting [8] is 93 % of control; the T/C under setting [9] is 103 % of control; the T/C under setting [4] is 103 % of control. For the same compound, the T/C was 100 % of control under setting [10] and 107 % of control under setting [5].
Turning to `CSc1nsc2nnc(N)n12`, the T/C is, setting by setting: under setting [1], 89 % of control; under setting [2], 102 % of control.
For `CC(C)(C)c1ccc(OS(=O)(=O)c2ccccc2[N+](=O)[O-])cc1`, the T/C is 102 % of control (dose: 100.0 mg/kg/injection, schedule: Q01DX001 (ip), vehicle: Klucel (hydroxypropylcellulose) (HPC)); 98 % of control (dose: 200.0 mg/kg/injection, schedule: Q01DX001 (ip), vehicle: Klucel (hydroxypropylcellulose) (HPC)); 95 % of control (dose: 400.0 mg/kg/injection, schedule: Q01DX001 (ip), vehicle: Klucel (hydroxypropylcellulose) (HPC)).
For `c1ccc(C2C(c3ccccc3)N2CCNC2=NCCN2)cc1` (stereo not drawn), the T/C runs as follows: (dose: 12.5 mg/kg/injection, schedule: Q01DX009 (ip), vehicle: Klucel (hydroxypropylcellulose) (HPC)) 91 % of control; (dose: 25.0 mg/kg/injection, schedule: Q01DX009 (ip), vehicle: Klucel (hydroxypropylcellulose) (HPC)) 102 % of control; under setting [11], 91 % of control.
With `CCCCCC(N)CC(=O)O` (stereo not drawn), the T/C was 105 % of control under setting [8]; 102 % of control under setting [9]; 96 % of control under setting [12]; 96 % of control under setting [10]; 96 % of control under setting [13]; 105 % of control (dose: 400.0 mg/kg/injection, schedule: Q04DX003 (ip), vehicle: saline).
Turning to `COc1c2ccoc2nc2c(OC)c(OCC(O)C(C)(C)O)ccc12` (stereo not drawn), the T/C is, setting by setting: (dose: 50.0 mg/kg/injection, schedule: Q01DX Z (ip), vehicle: carboxymethylcellulose (CMC)) 97 % of control; (dose: 100.0 mg/kg/injection, schedule: Q01DX Z (ip), vehicle: carboxymethylcellulose (CMC)) 100 % of control.
Take `Clc1ccc(Cl)c(CBr)c1Cl`: the T/C was 98 % of control (dose: 25.0 mg/kg/injection, schedule: Q04DX003 (ip), vehicle: Klucel (hydroxypropylcellulose) (HPC)); 98 % of control under setting [11]; 101 % of control (dose: 50.0 mg/kg/injection, schedule: Q04DX003 (ip), vehicle: Klucel (hydroxypropylcellulose) (HPC)); 88 % of control (dose: 100.0 mg/kg/injection, schedule: Q01DX009 (ip), vehicle: Klucel (hydroxypropylcellulose) (HPC)); 101 % of control (dose: 100.0 mg/kg/injection, schedule: Q04DX003 (ip), vehicle: Klucel (hydroxypropylcellulose) (HPC)); 100 % of control under setting [14]. Moreover, where the note is “dose: 200.0 mg/kg/injection, schedule: Q01DX009 (ip), vehicle: Klucel (hydroxypropylcellulose) (HPC)”, the T/C is 90 % of control.
`O=C(O)/C=C/C=C/c1ccccc1`: the T/C under setting [14] was 97 % of control; the T/C (dose: 200.0 mg/kg/injection, schedule: Q04DX003 (ip), vehicle: saline with Tween-80) is 92 % of control; the T/C (dose: 400.0 mg/kg/injection, schedule: Q04DX003 (ip), vehicle: saline with Tween-80) was 106 % of control.
Regarding `COc1ccc2c(=O)c3c(O)cc(OC)cc3oc2c1`, the T/C is, setting by setting: under setting [3], 97 % of control; under setting [4], 101 % of control; under setting [5], 87 % of control and 90 % of control.
As for `Nc1nc(=O)n(C2OC(CO)C(O)C2O)cc1Cl` (stereo not drawn), the T/C (dose: 200.0 mg/kg/injection, schedule: Q01DX005 (ip), vehicle: saline) was 150 % of control; the T/C under setting [12] was 160 % of control; the T/C under setting [13] is 176 % of control.
`Cn1ncc2ccccc21`: the T/C is 101 % of control (dose: 62.5 mg/kg/injection, schedule: Q01DX009 (ip), vehicle: other); 102 % of control (dose: 125.0 mg/kg/injection, schedule: Q01DX009 (ip), vehicle: other); 93 % of control (dose: 250.0 mg/kg/injection, schedule: Q01DX009 (ip), vehicle: other).
